Assay results reported in patent US8648076B2, “Cysteine protease inhibitors and their therapeutic applications” (Hybrigenics SA, priority 2005, dated 2014).
Read-outs that look alike come from different tables or passages of the source.

Columns and labels:
Uch-L3 = target: T1, Uch-L3 (Homo sapiens, UniProt P15374); assay: UCH-L3 activity assay; assay type: biochemical; conditions: 400 nM Ub-AMC, 13 pM enzyme, 30 min pre-incubation at 25° C., 60 min at 37° C.; sigmoidal fit; AF: Autofluorescent; read-out: Uch-L3 (inhibition of cysteine protease activity)
T1 sequence (P15374 1-230): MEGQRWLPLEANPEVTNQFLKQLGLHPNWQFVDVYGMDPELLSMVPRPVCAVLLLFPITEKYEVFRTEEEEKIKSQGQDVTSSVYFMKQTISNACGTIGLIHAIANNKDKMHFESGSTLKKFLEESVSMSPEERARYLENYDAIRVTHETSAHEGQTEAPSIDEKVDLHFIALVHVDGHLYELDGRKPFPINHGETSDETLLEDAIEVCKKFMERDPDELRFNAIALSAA
Procedure: Bovine Serum Albumin 0.05 mg·ml^−1 pH7.6). Compounds stocks (100 mM) were stored at −20° C. in DMSO. […] Reactions were performed as duplicates in Black LJL 96 well plates (HE microplates; Molecular Devices; 20 μl final reaction volume). The substrate concentration for Uch-L3 was 400 nM Ub-AMC (Boston Biochem). The concentration of the enzyme (Uch-L3) in specificity assays was 13 pM. The concentrations were determined in order to perform specificity assays under initial velocities at fixed substrate concentration. Compounds were pre-incubated with enzymes for 30 minutes at 25° C. Reactions were initiated by addition of substrate to the plates containing the enzymes (+/−compounds) diluted in assay buffer. Reactions were incubated for 60 minutes at 37° C. Reactions were stopped by adding acetic acid (100 mM final). Readings were performed on a Pherastar Fluorescent Reader (BMG). δ Emission 380 nm; δ Excitation=460 nm. Data (mean values+/− standard deviation) were analyzed as % of control (no compound) and plotted as percentage versus the Log of the compound concentration using GraphPad (Prism). Data were fitted to a sigmoidal model (variable slope).

Cathepsin B = Cathepsin B (Homo sapiens, UniProt P07858); assay: Cathepsin B activity assay; assay type: biochemical; conditions: 36 μM z-RR-AMC, 3.6 nM enzyme, 30 min pre-incubation at 25° C., 60 min at 37° C.; sigmoidal fit; AF: Autofluorescent; read-out: cathepB (inhibition of cysteine protease activity)
Procedure: Cathepsin B was diluted in Cathepsin B buffer (20 mM Tris HCl pH 6.8; 1 mM EDTA; 1 mM DTT). Compounds stocks (100 mM) were stored at −20° C. in DMSO. […] Reactions were performed as duplicates in Black LJL 96 well plates (HE microplates; Molecular Devices; 20 μl final reaction volume). The substrate concentration for cathepsin B specificity assay was 36 μM (z-RR-AMC; Calbiochem). The concentration of the enzyme (Cathepsin B) in specificity assays was 3.6 nM. The concentrations were determined in order to perform specificity assays under initial velocities at fixed substrate concentration. Compounds were pre-incubated with enzymes for 30 minutes at 25° C. Reactions were initiated by addition of substrate to the plates containing the enzymes (+/− compounds) diluted in assay buffer. Reactions were incubated for 60 minutes at 37° C. Reactions were stopped by adding acetic acid (100 mM final). Readings were performed on a Pherastar Fluorescent Reader (BMG). δ Emission 380 nm; 6 Excitation=460 nm. Data (mean values+/− standard deviation) were analyzed as % of control (no compound) and plotted as percentage versus the Log of the compound concentration using GraphPad (Prism). Data were fitted to a sigmoidal model (variable slope).

[1] = tested on: PC-3 prostate cancer cells; assay: PC3 cell viability and proliferation assay (MTS); assay type: cell-based; conditions: Homo sapiens, PC-3, 72 h, read-out: PC3 D3 GI50
USP8 = target: T2, USP8 (Homo sapiens, UniProt P40818); assay: USP8 activity assay; assay type: biochemical; conditions: 400 nM Ub-AMC, pH8.8, 30 min pre-incubation at 25° C., 60 min at 37° C.; sigmoidal fit; AF: Autofluorescent; read-out: USP 8 (inhibition of cysteine protease activity)
T2 sequence (P40818 1-1118): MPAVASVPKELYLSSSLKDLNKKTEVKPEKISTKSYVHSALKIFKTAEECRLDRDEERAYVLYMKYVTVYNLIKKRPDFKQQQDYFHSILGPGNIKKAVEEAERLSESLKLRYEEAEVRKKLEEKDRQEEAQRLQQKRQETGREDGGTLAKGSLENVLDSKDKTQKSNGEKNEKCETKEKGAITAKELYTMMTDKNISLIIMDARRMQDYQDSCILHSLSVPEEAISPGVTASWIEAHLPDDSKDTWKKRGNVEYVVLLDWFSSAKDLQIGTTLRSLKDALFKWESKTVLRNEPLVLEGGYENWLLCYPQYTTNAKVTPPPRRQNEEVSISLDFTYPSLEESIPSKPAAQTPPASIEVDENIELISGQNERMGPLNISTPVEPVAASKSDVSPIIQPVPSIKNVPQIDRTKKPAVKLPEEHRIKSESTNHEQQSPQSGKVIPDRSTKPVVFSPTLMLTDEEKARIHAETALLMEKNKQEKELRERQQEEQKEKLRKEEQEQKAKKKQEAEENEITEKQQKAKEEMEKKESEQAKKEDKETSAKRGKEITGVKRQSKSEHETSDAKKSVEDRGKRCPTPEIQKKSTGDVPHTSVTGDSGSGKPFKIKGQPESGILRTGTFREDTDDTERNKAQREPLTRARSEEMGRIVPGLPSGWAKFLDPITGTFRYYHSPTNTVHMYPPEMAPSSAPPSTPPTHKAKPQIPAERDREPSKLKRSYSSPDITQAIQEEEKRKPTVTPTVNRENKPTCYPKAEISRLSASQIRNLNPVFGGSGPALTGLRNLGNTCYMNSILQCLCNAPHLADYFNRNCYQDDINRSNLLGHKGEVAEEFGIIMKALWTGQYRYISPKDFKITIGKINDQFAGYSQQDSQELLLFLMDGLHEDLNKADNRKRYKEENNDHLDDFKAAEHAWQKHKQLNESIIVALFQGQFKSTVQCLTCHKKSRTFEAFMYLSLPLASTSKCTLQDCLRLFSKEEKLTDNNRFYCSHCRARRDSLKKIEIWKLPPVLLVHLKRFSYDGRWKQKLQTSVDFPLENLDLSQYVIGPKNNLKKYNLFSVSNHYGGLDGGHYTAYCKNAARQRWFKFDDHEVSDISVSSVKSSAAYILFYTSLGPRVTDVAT

[2] = PC3 cells, 72 hours incubation, MTS, mean of 3 independent experiments

| SMILES | IC50 (Uch-L3) [nM] | IC50 (Cathepsin B) [nM] | GI50 [1, 2] [nM] | IC50 (USP8) [nM] | GI50 [1] [nM] |
| --- | --- | --- | --- | --- | --- |
| N#Cc1nc2c(nc1C#N)-c1ccccc1/C2=N/Oc1ccccc1 [Example 13e, 9-Phenoxyimino-9H-indeno[1,2-b]pyrazine-2,3-dicarbonitrile] | 540 | > 100000 | 530 | 240 |  |
| N#Cc1nc2c(nc1C#N)C(=O)c1ccccc1C2=O [Example 20, 5,10-dioxo-5,10-dihydro-benzo[g]quinoxaline-2,3-dicarbonitrile] | 39600 | > 100000 |  | > 100000 | 1260 |
| N#Cc1nc2c(nc1Cl)-c1ccccc1C2=O [Example 9, 3-chloro-9-oxo-9H-indeno[1,2-b]pyrazine-2-carbonitrile] | 8800 | > 100000 | > 10000 | 16200 |  |
| N#Cc1nc2c(nc1O)-c1ccc(Cl)cc1C2=O [Example 42, 7-chloro-3-hydroxy-9-oxo-9H-indeno[1,2-b]pyrazine-2-carbonitrile] | > 100000 | > 100000 |  | > 100000 | > 10000 |
| COc1ccc2c(c1)C(=O)c1nc(C#N)c(C#N)nc1-2 [Example 17i, 7-Methoxy-9-oxo-9H-indeno[1,2-b]pyrazine-2,3-dicarbonitrile] | 3100 | 32000 | 1270 | 2100 |  |
| N#Cc1nc2c(nc1O)-c1ccccc1C2=O [Example 6, 3-hydroxy-9-oxo-9H-indeno[1,2-b]pyrazine-2-carbonitrile] | 1100 | > 100000 | > 10000 | 8400 |  |
| N#Cc1nc2c(nc1C#N)-c1ccc(Cl)cc1C2=O [Example 17g, 7-Chloro-9-oxo-9H-indeno[1,2-b]pyrazine-2,3-dicarbonitrile] | 70 | 1500 | 1110 | 96 |  |
| CCc1ccc2c(c1)-c1nc(C#N)c(C#N)nc1C2=O [Example 32, 6-ethyl-9-oxo-9H-indeno[1,2-b]pyrazine-2,3-dicarbonitrile] | 258 | 69000 |  | 111 | 1430 |
| COCCON=C1c2ccccc2-c2nc(C(N)=O)c(C#N)nc21 [Example 34c, 2-Cyano-9-(2-methoxy-ethoxyimino)-9H-indeno[1,2-b]pyrazine-3-carboxylic acid amide] | 109 | > 100000 |  | 71 | 362 |
| N#CNc1nc2c(nc1C#N)C(=O)c1ccccc1-2 [Example 21, 2-cyano-9-oxo-9H-indeno[1,2-b]pyrazin-3-yl-cyanamide] | > 100000 | > 100000 | > 10000 | > 100000 |  |
| CCON=C1c2ccccc2-c2nc(C(N)=O)c(C#N)nc21 [Example 34b, 2-Cyano-9-ethoxyimino-9H-indeno[1,2-b]pyrazine-3-carboxylic acid amide] | 99 | > 100000 |  | 63 | 479 |
| CON=C1c2ccccc2-c2nc(C(N)=O)c(C#N)nc21 [Example 34d, 2-Cyano-9-methoxyimino-9H-indeno[1,2-b]pyrazine-3-carboxylic acid amide] | 37 | 1110 |  | 29 | 1200 |
| CN(C)c1nc2c(nc1C#N)C(=O)c1ccccc1-2 [Example 4, 3-dimethylamino-9-oxo-9H-indeno[1,2-b]pyrazine-2-carbonitrile] | > 100000 | > 100000 | > 10000 | > 100000 |  |
| N#Cc1nc2c(nc1C#N)-c1ccccc1C2=Nc1ccccc1 (mixture of isomers) [Example 14, 9-[phenylimino]-9H-indeno[1,2-b]pyrazine-2,3-dicarbonitrile] | 390 | 74000 | 510 | 350 |  |
| N#Cc1nc2c(nc1C#N)-c1ccc(Cl)cc1C2=NNC(N)=O [Example 43, 9-[(aminocarbonyl)hydrazono]-7-chloro-9H-indeno[1,2-b]pyrazine-2,3-dicarbonitrile] | 13500 | > 100000 |  | 814 | 655 |
| CCSc1nc2c(nc1C#N)C(=O)c1ccccc1-2 [Example 23, 3-ethylsulfanyl-9-oxo-9H-indeno[1,2-b]pyrazine-2-carbonitrile] | 86000 | > 100000 | > 10000 | 46000 |  |
| COc1ccc(OC)c2c1C(=O)c1nc(C#N)c(C#N)nc1-2 [Example 17f, 5,8-Dimethoxy-9-oxo-9H-indeno[1,2-b]pyrazine-2,3-dicarbonitrile] | 600 | 52600 | 800 | 810 |  |
| N#Cc1nc2sc3ccccc3c2nc1C#N [Example 19, benzo[4,5]thieno[2,3-b]pyrazine-2,3-dicarbonitrile] | > 100000 | > 100000 | 4200 | > 100000 |  |
| COc1nc2c(nc1C#N)C(=O)c1ccccc1-2 [Example 3, 3-methoxy-9-oxo-9H-indeno[1,2-b]pyrazine-2-carbonitrile] | 13000 | > 100000 | > 10000 | 31000 |  |
| N#Cc1nc2c(nc1C#N)-c1ccc(F)cc1C2=O [Example 17h, 7-Fluoro-9-oxo-9H-indeno[1,2-b]pyrazine-2,3-dicarbonitrile] | 330 | 6000 | 570 | 250 |  |
| N#Cc1nc2c(nc1C#N)-c1ccc(Cl)cc1C2=NOCCOc1ccccc1 [Example 27b, 7-Chloro-9-(2-phenoxy-ethoxyimino)-9H-indeno[1,2-b]pyrazine-2,3-dicarbonitrile] | 1700 | > 100000 |  | 11300 | 259 |
